Data published in ChEMBL document CHEMBL5512632, “Unlocking the potential of 1,4-naphthoquinones: A comprehensive review of their anticancer properties” (Eur J Med Chem, 2024).
In brackets after ≈: the same amount, converted by molar mass.

Assays:
HCC1806 = experiment: Antiproliferative activity against human HCC1806 cells assessed as inhibition of cell growth incubated upto 120 hrs by MTS assay; type: functional, cell-based; conditions: HCC1806, 120 h
MDA-MB-231 = experiment: Antiproliferative activity against human MDA-MB-231 cells assessed as inhibition of cell growth incubated upto 120 hrs by MTS assay; type: functional, cell-based; conditions: MDA-MB-231, 120 h
Hs-578T = experiment: Antiproliferative activity against human Hs-578T cells assessed as inhibition of cell growth incubated upto 120 hrs by MTS assay; type: functional, cell-based
MCF7 [1] = experiment: Antiproliferative activity against human MCF7 cells assessed as inhibition of cell growth incubated upto 120 hrs by MTS assay; type: functional, cell-based; conditions: MCF7, 120 h
A549 [2] = experiment: Antiproliferative activity against human A549 cells assessed as inhibition of cell growth incubated for 48 hrs by MTT reagent based microplate reader assay; type: functional; conditions: A549, 48 h
DU-145 [3] = experiment: Antiproliferative activity against human DU-145 cells assessed as inhibition of cell growth incubated for 48 hrs by MTT reagent based microplate reader assay; type: functional; conditions: DU-145, 48 h
HCT-116 = experiment: Antiproliferative activity against human HCT-116 cells assessed as inhibition of cell growth incubated for 48 hrs by MTT reagent based microplate reader assay; type: functional; conditions: HCT-116, 48 h
HeLa [4] = experiment: Antiproliferative activity against human HeLa cells assessed as inhibition of cell growth incubated for 48 hrs by MTT reagent based microplate reader assay; type: functional
HepG2 [5] = experiment: Antiproliferative activity against human HepG2 cells assessed as inhibition of cell growth incubated for 48 hrs by MTT reagent based microplate reader assay; type: functional; conditions: HepG2, 48 h
HT-29 = experiment: Antiproliferative activity against human HT-29 cells assessed as inhibition of cell growth incubated for 48 hrs by MTT reagent based microplate reader assay; type: functional; conditions: HT-29, 48 h
MCF7 [6] = experiment: Antiproliferative activity against human MCF7 cells assessed as inhibition of cell growth incubated for 48 hrs by MTT reagent based microplate reader assay; type: functional; conditions: MCF7, 48 h
PANC-1 = experiment: Antiproliferative activity against human PANC-1 cells assessed as inhibition of cell growth incubated for 48 hrs by MTT reagent based microplate reader assay; type: functional; conditions: PANC-1, 48 h
PC-3 = experiment: Antiproliferative activity against human PC-3 cells assessed as inhibition of cell growth incubated for 48 hrs by MTT reagent based microplate reader assay; type: functional; conditions: PC-3, 48 h
Hep 3B2 [7] = experiment: Cytotoxicity against human Hep3B cells assessed as inhibition of cell growth incubated for 24 hrs by MTT reagent based microplate reader assay; type: functional
HepG2 [8] = experiment: Cytotoxicity against human HepG2 cells assessed as inhibition of cell growth incubated for 24 hrs by MTT reagent based microplate reader assay; type: functional; conditions: HepG2, 24 h
Huh-7 [9] = experiment: Cytotoxicity against human Huh-7 cells assessed as inhibition of cell growth incubated for 24 hrs by MTT reagent based microplate reader assay; type: functional; conditions: Huh-7, 24 h
[10] = Antiproliferative activity against human CAL-78 cells assessed as inhibition of cell growth incubated for 24 hrs by CellTiter-Glo luminescent assay; type: functional, cell-based; conditions: CAL-78, 24 h
SW1353 = experiment: Antiproliferative activity against human SW1353 cells assessed as inhibition of cell growth incubated for 24 hrs by CellTiter-Glo luminescent assay; type: functional, cell-based; conditions: SW1353, 24 h
SCC-25 = experiment: Cytotoxicity against human SCC-25 cells incubated for 48 hrs by MTT reagent based spectrophotometric analysis; type: functional, cell-based; conditions: SCC-25, 48 h
T-24 = experiment: Cytotoxicity against human T24 cells assessed as reduction in cell growth incubated for 48 hrs by MTT assay; type: functional, cell-based; conditions: T-24, 48 h
DU-145 [11] = experiment: Cytotoxicity against human DU-145 cells assessed as reduction in cell growth incubated for 48 hrs by MTT assay; type: functional, cell-based; conditions: DU-145, 48 h
MCF7 [12] = experiment: Cytotoxicity against human MCF7 cells assessed as reduction in cell growth incubated for 48 hrs by MTT assay; type: functional, cell-based; conditions: MCF7, 48 h
MCF7 [13] = experiment: Cytotoxicity against human MCF7 cells incubated for 24 hrs by MTT assay; type: functional, cell-based; conditions: MCF7, 24 h
RPMI-8226 = experiment: Cytotoxicity against human RPMI-8226 cells assessed as reduction in cell viability incubated for 72 hrs by MTT assay; type: functional, cell-based; conditions: RPMI-8226, 72 h
MCF7 [14] = experiment: Cytotoxicity against human MCF7 cells assessed as reduction in cell viability incubated for 72 hrs by MTT assay; type: functional, cell-based; conditions: MCF7, 72 h
HepG2 [15] = experiment: Cytotoxicity against human HepG2 cells assessed as reduction in cell viability incubated for 72 hrs by MTT assay; type: functional, cell-based; conditions: HepG2, 72 h
GBM = experiment: Cytotoxicity against human GBM cells assessed as inhibition of cell growth incubated for 72 hrs by MTT assay; type: functional, cell-based
U-87 MG = experiment: Cytotoxicity against human U87 cells assessed as inhibition of cell growth incubated for 72 hrs by MTT assay; type: functional, cell-based, U-87MG ATCC
CCRF-CEM = experiment: Antiproliferative activity against human CCRF-CEM cells assessed as inhibition of cell growth incubated for 72 hrs by resazurin assay; type: functional, cell-based
ADR5000 cell line = experiment: Antiproliferative activity against human ADR5000 cell line assessed as inhibition of cell growth incubated for 72 hrs by resazurin assay; type: functional, cell-based; conditions: ADR5000, 72 h
AGS = experiment: Antiproliferative activity against human AGS cells assessed as inhibition of cell growth incubated for 24 hrs by MTT reagent based microplate reader assay; type: functional
MKN-28 = experiment: Antiproliferative activity against human MKN-28 cells assessed as inhibition of cell growth incubated for 24 hrs by MTT reagent based microplate reader assay; type: functional; conditions: MKN-28, 24 h
MKN-45 = experiment: Antiproliferative activity against human MKN-45 cells assessed as inhibition of cell growth incubated for 24 hrs by MTT reagent based microplate reader assay; type: functional; conditions: MKN-45, 24 h
[16] = Antiproliferative activity against human SNU-216 cells assessed as inhibition of cell growth incubated for 24 hrs by MTT reagent based microplate reader assay; type: functional; conditions: SNU-216, 24 h
[17] = Antiproliferative activity against human SNU-484 cells assessed as inhibition of cell growth incubated for 24 hrs by MTT reagent based microplate reader assay; type: functional; conditions: SNU-484, 24 h
NCI-N87 = experiment: Antiproliferative activity against human NCI-N87 cells assessed as inhibition of cell growth incubated for 24 hrs by MTT reagent based microplate reader assay; type: functional; conditions: NCI-N87, 24 h
[18] = Antiproliferative activity against human YCC-1 cells assessed as inhibition of cell growth incubated for 24 hrs by MTT reagent based microplate reader assay; type: functional; conditions: YCC-1, 24 h
[19] = Antiproliferative activity against human YCC-6 cells assessed as inhibition of cell growth incubated for 24 hrs by MTT reagent based microplate reader assay; type: functional; conditions: YCC-6, 24 h
[20] = Antiproliferative activity against human YCC-16 cells assessed as inhibition of cell growth incubated for 24 hrs by MTT reagent based microplate reader assay; type: functional; conditions: YCC-16, 24 h
HepG2 [21] = experiment: Antiproliferative activity against human HepG2 cells assessed as inhibition of cell growth incubated for 24 hrs by MTT reagent based microplate reader assay; type: functional; conditions: HepG2, 24 h
Hep 3B2 [22] = experiment: Antiproliferative activity against human Hep3B cells assessed as inhibition of cell growth incubated for 24 hrs by MTT reagent based microplate reader assay; type: functional
Huh-7 [23] = experiment: Antiproliferative activity against human Huh-7 cells assessed as inhibition of cell growth incubated for 24 hrs by MTT reagent based microplate reader assay; type: functional; conditions: Huh-7, 24 h
A549 [24] = experiment: Cytotoxicity against human A549 cells assessed as reduction in cell viability incubated for 24 hrs by MTT assay; type: functional, cell-based; conditions: A549, 24 h
HeLa [25] = experiment: Cytotoxicity against human HeLa cells assessed as reduction in cell viability incubated for 24 hrs by MTT assay; type: functional, cell-based
MCF7 [26] = experiment: Cytotoxicity against human MCF7 cells assessed as reduction in cell viability incubated for 24 hrs by MTT assay; type: functional, cell-based; conditions: MCF7, 24 h
A549 [27] = experiment: Antiproliferative activity against human A549 cells assessed as inhibition of cell growth by MTT assay; type: functional, cell-based

Molecule COc1ccc(OC)c2c1C(=O)C(Cl)=C(Cl)C2=O has an IC50 (HCC1806) of 2680 nM, an IC50 (MDA-MB-231) of 3280 nM and an IC50 (Hs-578T) of 1630 nM. For the same molecule, the IC50 (MCF7 [1]) was 5500 nM.
Molecule CCCCCCCC/C=C\CCCCCCCC(=O)Oc1cccc2c1C(=O)C=C(C)C2=O has an IC50 (A549 [2]) of 15400 nM, an IC50 (DU-145 [3]) of 8800 nM and an IC50 (HCT-116) of 6500 nM. The IC50 (HeLa [4]) was 21000 nM, the IC50 (HepG2 [5]) was 7400 nM and the IC50 (HT-29) was 2900 nM. The IC50 (MCF7 [6]) was 7200 nM, the IC50 (PANC-1) was 16100 nM and the IC50 (PC-3) was 10000 nM.
Molecule CCCS(=O)(=O)C12OC1C(=O)c1c(OC)ccc(OC)c1C2=O (stereo unspecified) has an IC50 (Hep 3B2 [7]) of 3890 nM, an IC50 (HepG2 [8]) of 5260 nM and an IC50 (Huh-7 [9]) of 7680 nM.
Work on CC(C)=CC[C@@H](OC(=O)C1CC1)C1=CC(=O)c2c(O)ccc(O)c2C1=O yielded an IC50 [10] of 2900 nM and an IC50 (SW1353) of 1200 nM.
With CC(C)/C=C/C1=C(OCc2cn(-c3cccc(Cl)c3)nn2)C(=O)c2ccccc2C1=O the IC50 (SCC-25) was 9810 nM.
O=C(C1=C(Nc2ccccc2)C(=O)c2ccccc2C1=O)c1ccco1 showed an IC50 (T-24) of 11700 nM, an IC50 (DU-145 [11]) of 5450 nM and an IC50 (MCF7 [12]) of 4640 nM. For the same molecule, the EC50 (MCF7 [13]) was 15000 nM.
In the case of CCOC(=O)CCCCCNC1=C(F)C(=O)c2c(F)c(F)c(F)c(F)c2C1=O, the IC50 (RPMI-8226) is reported as 2800 nM, the IC50 (MCF7 [14]) is reported as 1400 nM and the IC50 (HepG2 [15]) is reported as 2100 nM.
Molecule CC(C)=CCC1=C(NCCCCN(CCCN)Cc2ccccc2)C(=O)c2ccccc2C1=O has an IC50 (GBM) of 6600 nM and an IC50 (U-87 MG) of 4300 nM.
With CCOc1ccc(NC(=O)C2=C(SC(C)(C)C)C(=O)c3ccccc3C2=O)cc1 the IC50 (CCRF-CEM) was 1900 nM and the IC50 (ADR5000 cell line) was 2000 nM.
Work on COc1ccc(OC)c2c1C(=O)C=C(Sc1ccc3ccccc3c1)C2=O yielded an IC50 (AGS) of 420 nM, an IC50 (MKN-28) of 1200 nM and an IC50 (MKN-45) of 820 nM. It also gave an IC50 [16] of 890 nM, an IC50 [17] of 1440 nM and an IC50 (NCI-N87) of 1530 nM. For the same molecule, the IC50 [18] was 1300 nM, the IC50 [19] was 800 nM and the IC50 [20] was 1580 nM. For the same molecule, the IC50 (HepG2 [21]) was 870 nM, the IC50 (Hep 3B2 [22]) was 900 nM and the IC50 (Huh-7 [23]) was 2840 nM.
Molecule O=C(Nc1ccc(S(=O)(=O)c2ccc(NC3=C(Sc4ccccc4)C(=O)c4ccccc4C3=O)cc2)cc1)c1cc(Cl)cc(Cl)c1 has an IC50 (A549 [24]) of 1980 nM, an IC50 (HeLa [25]) of 1170 nM and an IC50 (MCF7 [26]) of 50 nM.
Molecule CC(=O)NCC1=C(Nc2ccc(O)c(C)c2)C(=O)c2ccccc2C1=O has an IC50 (A549 [27]) of 3 µg/mL (≈ 8.56 µM).
